# Measured values published in patent US20150225404A1, “PYRIDINE DERIVATIVE AND MEDICINE” (NIPPON SHINYAKU CO., LTD., priority 2012, published 2015).
# Structures can show the parent of a compound that is named as a salt. Where two headings read alike, the source gives them in different places.
# Key:
# male Slc:ICR mice = assay: Action against pain-related behavior and micturition cycle in mice with cyclophosphamide (CP)-induced acute cystitis; format: in vivo; details: Mus musculus, iv, 0.25 h, CP 300 mg/kg i.p., 15 minutes observation; for inhibition in vivo at 1 mg/kg: test substance 1 mg/kg intravenously 3 hours after CP; for inhibition in vivo at 3 mg/kg: test substance 3 mg/kg intravenously 3 hours after CP
# Protocol: An action of a test substance against visceral pain and frequent urination associated with cystitis, which was induced by intraperitoneal administration (20 mL/kg) of CP (300 mg/kg) to 4 to 5-week-old male Slc:ICR mice (available from Japan SLC, Inc.), was investigated. This experiment was performed according to a method described in European Journal of Pharmacology, 676 (2012), pp. 75-80.
# Three hours after the administration of CP, a test substance (1 mg/kg or 3 mg/kg) was intravenously administered, and observation by visual inspection and video recording were performed for 15 minutes immediately thereafter. In the observation by visual inspection, four pain-related behaviors (eye opening, rounded back, leg dragging, and behavior during urination) were scored, each rated on a scale of 0-10, according to the following criteria.
# Eye opening (normal: 0 point, sometimes closed or half-open eyes: 5 points, completely closed: 10 points)
# Rounded back (normal: 0 point, sometimes crouched: 5 points, crouched at almost all times: 10 points)
# Leg dragging (normal: 0 point, leg dragging: 10 points)
# Behavior during urination (normal: 0 point, shaking hip in micturition: 10 points)
# In addition, the video was played back, and the frequency of licking behavior around the abdomen as a pain-related behavior was scored, rated on a scale of 0-10, according to the following criteria.
# Licking behavior around the abdomen (0 to 3 times: 0 point, 4 times to 10 times: 5 points, 11 times or more: 10 points)
# Furthermore, the video was played back, and the frequency of urination (urination marks) on a filter paper was counted and taken as an index for micturition cycle.
# An average value of the pain-related behavior score of each group (total score of the five items: 50 points at maximum) and an average value of the frequency of urination (urination marks) on the filter paper were determined.
# The strength of an analgesic action of the test substance against the CP-induced visceral pain was evaluated in terms of percent inhibition (%) of pain-related behavior score which is calculated as {(A−B)/A×100}, wherein A is an average value of the pain-related behavior score of a medium-administered group, and B is an average value of the pain-related behavior score of a test substance-administered group.
# In addition, the strength of a frequent urination inhibitory action of the test substance against the CP-induced frequent urination was evaluated in terms of percent inhibition (%) of the frequency of urination which is calculated as {(C−D)/C×100}, wherein C is an average value of the frequency of urination of a medium-administered group, and D is an average value of the frequency of urination of a test substance-administered group.
# human mGluR5 = molecular target: T1, human mGluR5 (Homo sapiens, UniProt P41594); assay: Experiment for receptor function of mGluR5 (Ca2+-dependent fluorescence, FLIPR, CHO-K1 cells stably expressing human mGluR5); format: cell-based; details: L-glutamic acid 10 μM, Fluo-4 fluorescence
# T1 construct: expressed in transfected cells
# Method in brief: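 Fluo-4-loaded CHO-K1 cells pre-incubated 2 min with test substance, then stimulated with L-glutamic acid (final 10 μM) in HBSS, pH 7.4. FLIPR Ca2+ fluorescence normalized to glutamate alone (100%) and glutamate with 10 μM MPEP (0%); IC50 estimated by logistic fit.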
# [1] = read-out: Percent inhibition of pain-related behavior score (%)
# [2] = read-out: Percent inhibition of the frequency of urination (%)
# T1 sequence (P41594 21-1212): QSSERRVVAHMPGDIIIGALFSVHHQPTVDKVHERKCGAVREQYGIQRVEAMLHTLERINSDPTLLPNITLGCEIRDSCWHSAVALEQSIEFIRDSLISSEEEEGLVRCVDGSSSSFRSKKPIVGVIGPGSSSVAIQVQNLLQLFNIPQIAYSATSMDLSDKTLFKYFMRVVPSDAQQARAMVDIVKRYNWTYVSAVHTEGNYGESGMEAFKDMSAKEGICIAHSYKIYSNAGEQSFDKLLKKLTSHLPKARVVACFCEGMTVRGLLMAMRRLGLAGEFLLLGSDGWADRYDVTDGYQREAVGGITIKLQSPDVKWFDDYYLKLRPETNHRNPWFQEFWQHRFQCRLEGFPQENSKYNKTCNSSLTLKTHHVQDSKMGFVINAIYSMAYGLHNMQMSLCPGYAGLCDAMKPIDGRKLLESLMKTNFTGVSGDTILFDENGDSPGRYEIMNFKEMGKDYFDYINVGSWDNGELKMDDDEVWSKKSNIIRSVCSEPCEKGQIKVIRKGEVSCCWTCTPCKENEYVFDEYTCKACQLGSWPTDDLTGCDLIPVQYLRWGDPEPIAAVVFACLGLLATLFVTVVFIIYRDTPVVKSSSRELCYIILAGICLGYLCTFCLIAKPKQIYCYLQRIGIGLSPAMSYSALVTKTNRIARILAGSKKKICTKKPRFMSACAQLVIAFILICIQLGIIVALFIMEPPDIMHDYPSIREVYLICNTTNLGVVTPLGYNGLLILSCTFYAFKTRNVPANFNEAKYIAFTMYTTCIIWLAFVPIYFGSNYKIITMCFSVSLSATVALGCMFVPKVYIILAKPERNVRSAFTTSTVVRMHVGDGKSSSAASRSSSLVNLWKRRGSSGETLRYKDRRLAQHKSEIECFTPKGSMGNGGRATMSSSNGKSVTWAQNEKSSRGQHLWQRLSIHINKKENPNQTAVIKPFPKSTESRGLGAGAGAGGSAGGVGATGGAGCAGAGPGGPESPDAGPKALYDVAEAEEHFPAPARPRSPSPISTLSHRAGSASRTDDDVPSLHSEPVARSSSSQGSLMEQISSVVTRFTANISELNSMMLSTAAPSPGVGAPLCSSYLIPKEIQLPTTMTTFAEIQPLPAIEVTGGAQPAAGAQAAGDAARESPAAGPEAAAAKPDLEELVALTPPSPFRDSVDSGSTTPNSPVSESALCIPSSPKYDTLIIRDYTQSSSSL
Compound,IC50 (human mGluR5),inhibition in vivo at 1 mg/kg (male Slc:ICR mice; [1]),inhibition in vivo at 1 mg/kg (male Slc:ICR mice; [2]),inhibition in vivo at 3 mg/kg (male Slc:ICR mice; [1]),inhibition in vivo at 3 mg/kg (male Slc:ICR mice; [2])
"Cc1ncc(-c2cc(OCc3cccc(C#N)n3)nc3c2CCC3)cn1 [Example 46, 6-({[4-(2-Methylpyrimidin-5-yl)-6,7-dihydro-5H-cyclopenta[b]pyridin-2-yl]oxy}methyl)pyridine-2-carbonitrile]",207 nM,22%,31.5%,,
"Fc1ccc(F)c(COc2cc(-c3cncnc3)c3c(n2)CCC3)n1 [Example 255, 2-[(3,6-Difluoropyridin-2-yl)methoxy]-4-(pyrimidin-5-yl)-6,7-dihydro-5H-cyclopenta[b]pyridine]",,,,31%,26.4%
"c1ccc(COc2cc(-c3cncnc3)c3c(n2)CCCC3)nc1 [Example 143, 2-(Pyridin-2-ylmethoxy)-4-(pyrimidin-5-yl)-5,6,7,8-tetrahydroquinoline hydrochloride]",38 nM,,,52.2%,47.7%
"Cc1ncc(-c2cc(OCc3nc(F)ccc3F)nc3c2CCC3)cn1 [Example 43, 2-[(3,6-Difluoropyridin-2-yl)methoxy]-4-(2-methylpyrimidin-5-yl)-6,7-dihydro-5H-cyclopenta[b]pyridine]",,,,31%,41.9%
"OCc1cncc(-c2cc(OCc3ncccc3F)nc3c2CCCC3)n1 [Example 217, (6-{2-[(3-Fluoropyridin-2-yl)methoxy]-5,6,7,8-tetrahydroquinolin-4-yl}pyrazin-2-yl)methanol]",,,,38.3%,40.4%
"Cn1nccc1-c1cc(OCc2ccc(C#N)cn2)nc2c1CCC2 [Example 274, 6-({[4-(1-Methyl-1H-pyrazol-5-yl)-6,7-dihydro-5H-cyclopenta[b]pyridin-2-yl]oxy}methyl)pyridine-3-carbo nitrile]",61 nM,,,,
"c1ccc(COc2cc(-c3cncs3)c3c(n2)CCCC3)nc1 [Example 224, 2-(Pyridin-2-ylmethoxy)-4-(1,3-thiazol-5-yl)-5,6,7,8-tetrahydroquinoline]",25.6 nM,,,,
"c1cncc(-c2cc(OCc3nccs3)nc3c2CCCC3)c1 [Example 94, 4-(Pyridin-3-yl)-2-(1,3-thiazol-2-ylmethoxy)-5,6,7,8-tetrahydroquinoline hydrochloride]",75 nM,,,,
"Fc1ccc(COc2cc(-c3cncnc3)c3c(n2)CCC3)nc1 [Example 25, 2-[(5-Fluoropyridin-2-yl)methoxy]-4-(pyrimidin-5-yl)-6,7-dihydro-5H-cyclopenta[b]pyridine]",60.6 nM,,,,
"c1cncc(-c2cc(OCc3ncco3)nc3c2CCCC3)c1 [Example 91, 2-(1,3-Oxazol-2-ylmethoxy)-4-(pyridin-3-yl)-5,6,7,8-tetrahydroquinoline]",16.9 nM,,,,
"N#Cc1cccc(COc2cc(-c3cncc(CO)n3)c3c(n2)CCC3)n1 [Example 56, 6-[({4-[6-(Hydroxymethyl)pyrazin-2-yl]-6,7-dihydro-5H-cyclopenta[b]pyridin-2-yl}oxy)methyl]pyridine-2-carbonitrile]",495 nM,,,,
"Cc1cccc(COc2cc(-c3cnc(C)nc3)c3c(n2)CCC3)n1 [Example 45, 2-[(6-Methylpyridin-2-yl)methoxy]-4-(2-methylpyrimidin-5-yl)-6,7-dihydro-5H-cyclopenta[b]pyridine hydrochloride]",,,,34.1%,33.8%
"COCc1cncc(-c2cc(OCc3ccccn3)nc3c2CCCC3)c1 [Example 123, 4-[5-(Methoxymethyl)pyridin-3-yl]-2-(pyridin-2-ylmethoxy)-5,6,7,8-tetrahydroquinoline hydrochloride]",58.8 nM,,,,
"COc1cncc(-c2cc(OCc3ccccn3)nc3c2CCCC3)c1 [Example 102, 4-(5-Methoxypyridin-3-yl)-2-(pyridin-2-ylmethoxy)-5,6,7,8-tetrahydroquinoline hydrochloride]",51.2 nM,,,,
"N#Cc1ccc(-c2cc(OCc3ccccn3)nc3c2CCC3)cn1 [Example 4, 5-[2-(Pyridin-2-ylmethoxy)-6,7-dihydro-5H-cyclopenta[b]pyridin-4-yl]pyridine-2-carbonitrile hydrochloride]",147 nM,,,,
"CNc1cncc(-c2cc(OCc3ccccn3)nc3c2CCCC3)n1 [Example 208, N-Methyl-6-[2-(pyridin-2-ylmethoxy)-5,6,7,8-tetrahydroquinolin-4-yl]pyrazin-2-amine hydrochloride]",125 nM,,,,
"C=C1CCc2c(-c3cncnc3)cc(OCc3ccccn3)nc21 [Example 237, 7-Methylidene-2-(pyridin-2-ylmethoxy)-4-(pyrimidin-5-yl)-6,7-dihydro-5H-cyclopenta[b]pyridine]",34.5 nM,,,,
"Cc1coc(COc2cc(-c3cccnc3)c3c(n2)CCCC3)n1 [Example 92, 2-[(4-Methyl-1,3-oxazol-2-yl)methoxy]-4-(pyridin-3-yl)-5,6,7,8-tetrahydroquinoline]",40.1 nM,,,,

# Further lines, with some results ahead:
IC50 (human mGluR5),Compound,inhibition in vivo at 1 mg/kg (male Slc:ICR mice; [1]),inhibition in vivo at 1 mg/kg (male Slc:ICR mice; [2]),inhibition in vivo at 3 mg/kg (male Slc:ICR mice; [1]),inhibition in vivo at 3 mg/kg (male Slc:ICR mice; [2])
123 nM,"Cc1cccc(COc2cc(-c3cnc(C)nc3)c3c(n2)CCCC3)n1 [Example 182, 2-[(6-Methylpyridin-2-yl)methoxy]-4-(2-methylpyrimidin-5-yl)-5,6,7,8-tetrahydroquinoline hydrochloride]",,,26%,43.2%
148 nM,"Cc1ncc(-c2cc(OCc3cccc(C#N)n3)nc3c2CCCC3)cn1 [Example 183, 6-({[4-(2-Methylpyrimidin-5-yl)-5,6,7,8-tetrahydroquinolin-2-yl]oxy}methyl)pyridine-2-carbonitrile]",37%,22.7%,,
36 nM,"Nc1ncc(-c2cc(OCc3ncccc3F)nc3c2CCCC3)cn1 [Example 191, 5-{2-[(3-Fluoropyridin-2-yl)methoxy]-5,6,7,8-tetrahydroquinolin-4-yl}pyrimidin-2-amine hydrochloride]",,,20.5%,36.5%
19.7 nM,"Fc1cccnc1COc1cc(-c2cncnc2)c2c(n1)CCCC2 [Example 147, 2-[(3-Fluoropyridin-2-yl)methoxy]-4-(pyrimidin-5-yl)-5,6,7,8-tetrahydroquinoline]",,,38.8%,21.1%
316 nM,"Cc1cccnc1COc1cc(-c2cncnc2)c2c(n1)CCCC2 [Example 153, 2-[(3-Methylpyridin-2-yl)methoxy]-4-(pyrimidin-5-yl)-5,6,7,8-tetrahydroquinoline]",,,,
71 nM,"Cc1ncc(-c2cc(OCc3ccccn3)nc3c2CCC3)cn1 [Example 36, 4-(2-Methylpyrimidin-5-yl)-2-(pyridin-2-ylmethoxy)-6,7-dihydro-5H-cyclopenta[b]pyridine hydrochloride]",,,40.4%,31.3%
176 nM,"Fc1ccnc(COc2cc(-c3cncnc3)c3c(n2)CCCC3)c1 [Example 146, 2-[(4-Fluoropyridin-2-yl)methoxy]-4-(pyrimidin-5-yl)-5,6,7,8-tetrahydroquinoline]",,,,
22 nM,"Fc1ccc(F)c(COc2cc(-c3cncnc3)c3c(n2)CCCC3)n1 [Example 148, 2-[(3,6-Difluoropyridin-2-yl)methoxy]-4-(pyrimidin-5-yl)-5,6,7,8-tetrahydroquinoline]",,,45.7%,31.5%
